Values joined by “and” are separate entries in the source; they are usually repeats but may differ in a detail not shown here. Equal values may be shown once. “Also recorded” adds a separate entry of the source. Marks after values point to notes of the source that are not given here.
How the values were obtained:
P. gallinaceum = test: Inhibition of P. gallinaceum sporogony in Aedes fluviatilis mosquitoes fed on infected, treated chickens; assay type: in vivo; settings: for Mean oocyts ±SD/ in times 4 h: chicken, mosquitoes fed 4 h after treatment; for Reduction in oocyst number, % / Sporogony inhibition, %: 4 h vs 0 h
Method: One-week-old chicks (Gallus gallus domesticus) previously inoculated with 10^6 RBC infected with P. gallinaceum, had their parasitemia monitoried daily, by examining Giemsa-stained thin blood smears; they were used to feed the mosquitoes when reaching 2.8 – 3.8%. The A. fluviatilis mosquitoes were kept for 24 h without sugar in their diet, to improve their ability to take the blood meal from chickens. For each compound the same infected chicken was offered twice to feed clean mosquitoes (30 female mosquitoes per group), before treatment, (group 0 h). Drug treatment was immediately performed by gavage and the treated chicken was offered again to blood-feed another group of mosquitoes (test group) 4 h after treatment of the chicken with the drug. […] In each experiment, another non-treated P. gallinaceum-infected chick was used twice (time 0 h and 4 h later) to feed clean mosquitoes, serving as an internal control.
Seven days after the blood meal, the mosquitoes were dissected and their midgut was removed under a stereomicroscope (100x), stained with 0.5% mercurochrome, and examined under a light microscope (40x) for the oocyst count. […] Two criteria were used to evaluate drug activity: the total number of infected mosquitoes and the mean number of oocysts, based on the examination of 20 mosquitoes in each group.

male Wistar rats [1] = test: Histopathological evaluation of rat liver and kidney; settings: multiple doses; for Liver glycogen: PAS-positive cells (total), periportal region: compared to the control group; for Histopathological analysis of the kidney: hematoxylin/eosin
Method: (§1) The biochemical, hematological and histopathological analyses were carried out in male Wistar rats (weighing 200–250 g). They were housed in wire cages, five animals per cage, with free access to food and water. The study protocol was approved by The Research Ethics Committee of the School of Pharmaceutical Sciences, UNESP, Araraquara (process 06/2009). […] After treatment with the drugs, the animals were decapitated for collection of blood and samples of liver and kidneys (preserved in 10% formaldehyde).
The liver and kidney were removed from each rat to perform the histopathological evaluation. Tissue pieces were fixed in 10% formaldehyde and embedded in paraffin. Each organ was then cut into 4-µm thick sections and subjected to standard hematoxylin/eosin staining. Hepatic glycogen staining in sections was carried out using the standard periodic acid-Schiff (PAS) reaction, followed by hematoxylin counterstaining, and the periportal and centrilobular regions of the liver were analyzed according to Thoolen et al.. Five periportal regions and five centrilobular regions were photographed in each animal, for a total of 300 photographs, and these images were adjusted using Pixelmator software (2.2.1). Nuclear hepatocyte glycogen levels were classified as: A- PAS<50% of cells, B- PAS≥50% of cells and C- PAS-negative. Additionally, liver sections were examined for the occurrence of microvesicular fatty changes, as well as the kidney sections for inflammatory infiltration, reduction of Bowman's spaces and changes in renal tubules. Statistical analysis was performed in Graphpad Prism 5.0b. Data for each organ analysis were expressed qualitatively and quantitatively, and normal distribution was verified (D'Agostin and Person). t-tests and chi-square tests were performed, and non-parametric data were evaluated using the Mann-Whitney or Kruskal-Wallis test for pair wise comparisons of groups. The significance level was set at 5%.

male Wistar rats [2] = test: Hemogram of rats treated with multiple doses; settings: gavage four times a day for 4 days, PQ 2.44 mg/kg free base, Phe-Ala-PQ 9.00 mg/kg, mean (CI 95)
Method: as §1
(§2) In biochemical analysis, aspartate aminotransferase (AST), alanine aminotransferase (ALT), gamma-glutamyltransferase (GGT), bilirubin, creatinine and urea kits were purchased from LabTest Diagnostica SA (Lagoa Santa,Minas Gerais, Brazil). Alkaline phosphatase (ALP) was assayed by the conversion of p-nitrophenyl phosphate to p-nitrophenol in a kinetic reaction, measured with a spectrophotometer at 405 nm. To determine the level of methemoglobin in relation to oxyhemoglobin, we used the method described by Naoum and collaborators. The blood was hemolyzed and the hemoglobin stabilized in 60 mM phosphate buffer, pH 6.8. The levels of methemoglobin and oxyhemoglobin were determined by spectrophotometric absorption at 630 and 540 nm. The total and differential white blood cell (WBC) counts were performed using a Neubauer chamber and blood smears, respectively. The hematocrit was determined using conventional method by microcapillary centrifugation.

in vitro = settings: human
Method: (§4) The hemolytic rate was calculated using 0.05% saponin as the positive control for hemolysis of human RBC, which was considered 100% [24], [25]. The diagnosis of G6PD deficiency was performed using a technique based on the principle that hemoglobin oxidized to methemoglobin, by the action of sodium nitrite, is catalyzed by an enzyme, in the presence of methylene blue [26]. […] All participants signed a written informed consent before blood collection. The consent was approved by the Ethics Committee of CEPEM.

In vitro hemolysis assay = settings: human
Method: as §4

[3] = system: monkey kidney cell line (BGM); test: In vitro cytotoxicity, MTT assay, BGM cells; settings: for MDL50 (Mean±SD) BGM: 24 h incubation
Method: (§3) The HepG2 (ATCC HB-8065) was originally received from the New University of Lisbon, Portugal, and BGM received as a gift from the Federal University of Minas Gerais and originally purchased from Rio de Janeiro Cell Bank (BCRJ 0049). When confluent, the cells were washed with RPMI culture medium, then trypsinized, distributed in a flat-bottom 96-well plate (5×10^3 cells/well), and incubated for 18 h at 37°C for cell adherence as described elsewhere. The compound (20 µL) was added to each well at various concentrations (1-1000 µg/mL) and the plate incubated for 24 h in a 5% CO2 atmosphere at 37°C. MTT [3-(4,5-dimethylthiazol-2-yl)-2,5-diphenyltetrazolium bromide] (5 mg/mL; 20 µL/well) was added to evaluate mitochondrial viability, and the plates were incubated again for 3 h, under the same culture conditions. The supernatant was carefully removed, and 100 µL of DMSO were added with mixing to dissolve the formazan crystals formed. The optical density was determined at 570 and 630 nm (background) (SpectraMax 340PC 384, Molecular Devices). Cell viability was expressed as the percentage of the control absorbance of the untreated cells after subtracting the appropriate background. The minimum lethal dose for 50% of the cells (MLD50) was determined as previously described.

male Wistar rats [4] = test: Biochemical analysis of serum of rats treated with multiple doses; settings: rat serum, gavage four times a day for 4 days, PQ diphosphate 2.44 mg/kg free base, Phe-Ala-PQ 9.00 mg/kg, mean
Method: as §1, §2

[5] = Partition coefficient (log P) by HPLC method, OECD guideline
Method: A Waters Alliance HPLC system equipped with a UV-Vis 2487 detector was employed. The chromatographic analysis was performed on a Symmetry C18 HPLC column (4.6 mm×250 mm, 5 µm particle size) and the mobile phase was methanol:water (70∶30), with detection at 256 nm. A flow rate of 1.0 mL/min was used and 50-µL samples were injected into the chromatographic system. The run time was approximately 15 min. The analytical curve was constructed on the basis of the retention time of the standards (purchased from Sigma Aldrich, NJ, USA) butanone, acetanilide, phenol, phenacetin, benzene, toluene, chlorobenzene and thymol, dissolved in mobile phase at a concentration of 50 µg/mL. The substances were analyzed in triplicate and the average retention time for each standard was used. The capacity factor (k) was obtained by the equation [20]: k = (tR - t0) /t0, where tR is the retention time of the test substance and t0 the dead-time. The log k values were correlated with the partition coefficients of the standards for construction of the analytical curve. […] The coefficient of determination (r^2) was also calculated to evaluate the linearity of the analytical curve.

[6] = cited from earlier work
[7] = system: human hepatoma cell line (HepG2); test: In vitro cytotoxicity, MTT assay, HepG2 cells; settings: for MDL50 (Mean±SD) HepG2: 24 h incubation
Method: as §3

[8] = system: G6PD-deficient human red blood cells; test: In vitro hemolysis assay
Method: as §4

[9] = previous study; cited from earlier work
[10] = single oral dose 1.0 mg/kg (Phe-Ala-PQ: 0.19 mg/kg PQ)
[11] = single oral dose 5.0 mg/kg (0.94 mg/kg PQ)
[12] = single oral dose 10 mg/kg (1.9 mg/kg PQ)
[13] = MTT, 24 h, expressed as PQ equivalents

SMILES: COc1cc(NC(C)CCCN)c2ncccc2c1 (stereo not shown) [PQ, Primaquine]
- Mean oocyts ±SD/ in times 4 h (P. gallinaceum; [10]): 2.1
- Mean oocyts ±SD/ in times 4 h (P. gallinaceum; single oral dose 1.0 mg/kg (Phe-Ala-PQ: 0.19 mg/kg PQ), listed as PQ diphosphate): 2.1±4.3
- Reduction in oocyst number, % (P. gallinaceum; [10]): 96%
- Sporogony inhibition, % (P. gallinaceum; [10]): 50%
- Liver glycogen: positive cells (<50%), periportal region (male Wistar rats [1]): decrease
- Liver glycogen: PAS-positive cells (total), periportal region (male Wistar rats [1]): more PAS-positive cells (total) compared to the control group
- Histopathological analysis of the kidney (male Wistar rats [1]): normal structures, with no alteration in the glomeruli and renal tubules
- Eosinophils Absolute (No. cells) (male Wistar rats [2]): 97 (43–151) No. cells
- Eosinophils Relative (%) (male Wistar rats [2]): 2.10 (0.77–3.42) %
- Hematocrit (male Wistar rats [2]): 46 (44–48) %
- Leukocytes (male Wistar rats [2]): 4840 (3973–5706) /mm^3
- Lymphocytes Absolute (No. cells) (male Wistar rats [2]): 4123 (3200–5046) No. cells
- Lymphocytes Relative (%) (male Wistar rats [2]): 83.9 ^a (78.9–88.9) %
- Methemoglobin (male Wistar rats [2]): 3.89 (3.39–4.40) %
- Monocytes Absolute (No. cells) (male Wistar rats [2]): 96 ^a (52–140) No. cells
- Monocytes Relative (%) (male Wistar rats [2]): 2.30 ^a (0.86–3.73) %
- Neutrophils Band Absolute (No. cells) (male Wistar rats [2]): 6 (0–19) No. cells
- Neutrophils Band Relative (%) (male Wistar rats [2]): 0.11 (0.00–0.36) %
- Neutrophils Segmented Absolute (No. cells) (male Wistar rats [2]): 516 ^a (403–629) No. cells
- Neutrophils Segmented Relative (%) (male Wistar rats [2]): 11.6 ^a (8.15–15.0) %
- hemolysis at 31 µg/mL (in vitro): 0%
- hemolysis at 62 µg/mL (in vitro): 0%
- hemolysis at 1000 µg/mL (in vitro): 100%
- hemolysis at 125 µg/mL (In vitro hemolysis assay): 0%
- hemolysis at 250 µg/mL (In vitro hemolysis assay): 50%
- hemolysis at 500 µg/mL (In vitro hemolysis assay): 87.8%
- MDL50 (Mean±SD) BGM ([3]; MTT): 263 µg/mL and 263 ± 4 µg/mL
- ALP (male Wistar rats [4]): 125.6 U/L
- ALT (male Wistar rats [4]): 91.81 ^a U/L
- AST (male Wistar rats [4]): 64.99 ^a U/L
- Creatinine (male Wistar rats [4]): 0.986 mg/dL and 0.986 ^a mg/dL
- Direct bilirubin (male Wistar rats [4]): 0.228 mg/dL
- GGT (male Wistar rats [4]): 22.88 ^a U/L
- Total bilirubin (male Wistar rats [4]): 0.797 mg/dL and 0.797 ^a mg/dL
- Urea (male Wistar rats [4]): 18.51 mg/dL
- chromatographic logP [5]: 2.1
- plasma half-life [6]: ca. 6 h
- MDL50 (Mean±SD) HepG2 ([7]; MTT): 180 µg/mL and 180 ± 24 µg/mL

SMILES: COc1cc(NC(C)CCCNC(=O)[C@H](C)NC(=O)[C@@H](N)Cc2ccccc2)c2ncccc2c1 (stereo partly drawn) [Phe-Ala-PQ, phenylalanine-alanine-primaquine]
- Mean oocyts ±SD/ in times 4 h (P. gallinaceum; [10]): 26±36
- Mean oocyts ±SD/ in times 4 h (P. gallinaceum; [11]): 6±6
- Mean oocyts ±SD/ in times 4 h (P. gallinaceum; [12]): 0±0
- Reduction in oocyst number, % (P. gallinaceum; [10]): 0%
- Sporogony inhibition, % (P. gallinaceum; [10]): 0%
- Reduction in oocyst number, % (P. gallinaceum; [11]): 70%
- Reduction in oocyst number, % (P. gallinaceum; [12]): 100%
- Sporogony inhibition, % (P. gallinaceum; [12]): 100%
- Liver glycogen: positive cells (<50%), periportal region (male Wistar rats [1]): increase
- Liver glycogen: PAS-positive cells (>50%), overall analysis of the liver (male Wistar rats [1]; compared to control group): more PAS-positive cells (>50%)
- Liver cells with fatty microvesicular changes (male Wistar rats [1]; compared to the PQ group, listed as prodrug): fewer cells with fatty microvesicular changes; also recorded: lower percentage of cells with fatty microvesicular changes
- Liver glycogen: PAS-positive cells (total), periportal region (male Wistar rats [1]): more PAS-positive cells (total) compared to the control group
- Histopathological analysis of the kidney (male Wistar rats [1]): normal structures, with no alteration in the glomeruli and renal tubules
- Eosinophils Absolute (No. cells) (male Wistar rats [2]): 40 (0–152) No. cells
- Eosinophils Relative (%) (male Wistar rats [2]): 0.40 (0.00–1.51) %
- Hematocrit (male Wistar rats [2]): 47 (45–48) %
- Hemoglobin (male Wistar rats [2]): 11.76 (11.38–12.14)
- Leukocytes (male Wistar rats [2]): 8700 ^a ^, ^b (5623–11777) /mm^3
- Lymphocytes Absolute (No. cells) (male Wistar rats [2]): 7691 ^a ^, ^b (5947–9976) No. cells
- Lymphocytes Relative (%) (male Wistar rats [2]): 83.0 ^a (75.8–90.2) %
- Methemoglobin (male Wistar rats [2]): 3.65 (3.45–3.85) %
- Monocytes Absolute (No. cells) (male Wistar rats [2]): 812 ^b (0–1728) No. cells
- Monocytes Relative (%) (male Wistar rats [2]): 7.60 ^b (0.06–15.1) %
- Neutrophils Band Absolute (No. cells) (male Wistar rats [2]): 0 No. cells
- Neutrophils Band Relative (%) (male Wistar rats [2]): 0%
- Neutrophils Segmented Absolute (No. cells) (male Wistar rats [2]): 895 (163–1626) No. cells
- Neutrophils Segmented Relative (%) (male Wistar rats [2]): 9.00 ^a (2.55–15.4) %
- Hemolysis % ([8]; 125 µg/mL (Phe-Ala-PQ: 23.7 µg/mL PQ equivalents)): 0%
- Hemolysis % ([8]; 500 µg/mL (Phe-Ala-PQ: 95 µg/mL PQ equivalents)): 51%
- Hemolysis ([8]; concentrations equal to or less than 250 µg/mL (47.5 µg/mL PQ equivalents)): did not cause hemolysis
- MDL50 BGM, PQ equivalents [3, 13]: 110 µg/mL
- MDL50 (Mean±SD) BGM ([3]; MTT): 580 µg/mL and 580 ± 86 µg/mL
- Toxicity to BGM cells compared to PQ ([3]; ratio of MDL50 values): about two times less toxic
- oral bioavailability [9]: approximately 50%
- ALP (male Wistar rats [4]): 93.52 U/L
- ALT (male Wistar rats [4]): 185.7 ^a, ^b U/L
- AST (male Wistar rats [4]): 290.6^a, ^b U/L
- Creatinine (male Wistar rats [4]): 0.529 mg/dL
- Direct bilirubin (male Wistar rats [4]): 0.147 mg/dL
- GGT (male Wistar rats [4]): 13.03^a, ^b U/L
- Total bilirubin (male Wistar rats [4]): 0.711 mg/dL
- Urea (male Wistar rats [4]): 5.734^a, ^b mg/dL
- Urea (male Wistar rats [4]; listed as prodrug): 5.734 mg/dL
- log P ([5]; HPLC method): 0.94
- MDL50 HepG2, PQ equivalents [7, 13]: 175 µg/mL
- MDL50 (Mean±SD) HepG2 ([7]; MTT): 920 µg/mL and 920 ± 1 µg/mL
- Toxicity to HepG2 cells compared to PQ ([7]; ratio of MDL50 values): five times less toxic
